Source: US20250074946A1, “USE OF SE-DR AFFINITY PEPTIDE IN PREPARING DRUG FOR TREATING RHEUMATIC DISEASE” (HEBEI FITNESS BIOTECHNOLOGY CO., LTD., priority 2021, published 2025)
Where a SMILES comes first, the peptide text is derived from it. Where no end group is shown, it is not given here.

How the values were obtained:
PBMC = PBMC stimulation test, IL-6 in supernatant by ELISA; type: cell-based, human; conditions: PBMC 1×10^6 cell/ml, peptide 10 μg/ml, 5 days of culture
Text: The SE-DR molecule is directly related to the pathogenesis of RA. It can present RA-related autoantigens in vivo, such as type II collagen (CII), heat shock protein 60 (Hsp60), cartilage glycoprotein (HCgp-39) and so on, and further activate autoreactive T cells, leading to the occurrence of rheumatoid arthritis. An important strategy for the treatment of RA is to use competitive inhibition to block the activation of autoreactive T cells by autoantigen peptides. […] Based on the above principles, we have designed and synthesized a series of altered peptide ligands, and screened for their affinity to SE-DR and for the activation ability on the peripheral blood T cells in RA patients. The specific steps and results are shown in Example 1 and Example 2.
3 mL ficoll was added to a 15 mL centrifuge tube, and 4 mL blood sample was then applied on the surface of ficoll. The tube was centrifuged at 400 g at 18-20° C. for 30-40 min. The upper layer of plasma was aspirated with a Pasteur pipette, and the PBMC layer (approximately 2 mL) was aspirated, and added to a 14 mL centrifuge tube previously filled with at least 3 volumes (6 mL) of PBS. The mixture was gently resuspended. The tube was centrifuged at 60-100 g for 10 min at 18-20° C. After centrifugation, the supernatant was removed with a Pasteur pipette, and the resulting cell mass was resuspended in 6-8 mL PBS and centrifuged at 18-20° C. for 10 min at 60-100 g to remove the supernatant. The cells were resuspended in an appropriate amount of 1640 complete medium and diluted to 1×10^6 cell/ml after cell counting. The diluted cell suspension was added to a 96-well plate. The positive control, allosteric peptide, was added to 100 μl cell culture to a final concentration of 10 μg/ml. The mixture was replenished to 200 μL with 1640 complete medium. After 5 days of culture, the supernatant was aspirated, centrifuged at 3000 rpm for 5 minutes, and the level of IL-6 in the supernatant was detected by ELISA.

[1] = system: immune system of healthy monkeys; assay: Immune indicators of cynomolgus monkeys after one month of administration (Example 5); type: in vivo, cynomolgus monkey; conditions: once a day for 4 weeks, end of administration
Text: Cynomolgus monkeys were used to investigate the effects of the SE-DR affinity peptide on the immune indicators of cynomolgus monkeys after continuous administration for one month. […] At the end of administration, the immune indicators, including the serum anti-FNS007 antibodies, the immunoglobulins of different serotypes, the serum complement, the peripheral blood T lymphocyte and the serum cytokines, were observed.

[2] = system: CIA mice infected with chronic hepatitis B; assay: CIA mice infected with chronic hepatitis B (Example 8); type: in vivo, mouse
Experimental: Establishment of chronic hepatitis B model in mice: DBA/1 mice were injected with Raav8-1. 3 HBV (1×10^12 vg/mL) via tail vein to establish HBV chronic hepatitis B model.
DBA/1 mice infected with chronic hepatitis B were used to establish CIA model with chronic hepatitis B infection. Methods: Two days after the mice were injected with Raav8-1.3 HBV (1×10^12 vg/mL) via tail vein, the emulsion of bovine C II and CFA (containing 100 μg collagen) was intradermally injected into the tail head of the mice for immunization. After 21 days, the mice were boosted once by intraperitoneal injection of the emulsion (containing 100 μg collagen) prepared by bovine C II and IFA. Thereafter, the morphological changes of the four paws of the mice were examined every day, and the mice were randomly assigned to the treatment group at inflammation score of 1. […] Another 10 mice with latent hepatitis B infection were not subjected to model establishment and set as the control group. PBS was administrated to both the model group and the control group. The mice in each group were given the corresponding drugs by tail intravenous injection at the volume of 10 ml/kg, once every other day, for 27 consecutive days. The mice were sacrificed on day 28 after administration. The inflammation scores of the four paws of the mice in each group were evaluated during the administration. The serological indicators for virus injection and liver function of the mice were detected on the day of booster immunization (22 days after tail vein injection) and at the time of sacrifice.

[3] = system: CIA rats with latent tuberculosis infection
[4] = system: immune system of healthy rats; assay: Immune indicators of SD rats after one month of administration (Example 4); type: in vivo, rat; conditions: once a day for 4 weeks, end of administration
Experimental: SD rats were used to investigate the effects of the SE-DR affinity peptides on the immune indicators of the rats after continuous administration for one month. […] At the end of administration, analysis was conducted on the serum anti-FNS007 antibodies, different types of serum immunoglobulins, the serum complement, the peripheral blood T lymphocyte and the serum cytokines.

C[C@H](NC(=O)CNC(=O)CNC(=O)[C@H](CCC(N)=O)NC(=O)[C@H](CCC(=O)O)NC(=O)CNC(=O)[C@H](CCCCN)NC(=O)[C@@H](N)Cc1ccccc1)C(=O)NCC(=O)N[C@@H](CCC(=O)O)C(=O)O [APL1]
IL-6 levels in the supernatant (PBMC): 18.9 ng/mL

CC[C@H](C)[C@H](N)C(=O)N[C@@H](Cc1c[nH]c2ccccc12)C(=O)N[C@@H](Cc1ccc(O)cc1)C(=O)N[C@H](C(=O)N[C@H](C(=O)N[C@@H](CS)C(=O)N[C@@H](Cc1ccccc1)C(=O)NCC(=O)N[C@@H](CS)C(=O)N[C@@H](CCC(=O)O)C(=O)N[C@H](C(=O)N[C@@H](Cc1c[nH]cn1)C(=O)N[C@@H](C)C(=O)N[C@@H](CCSC)C(=O)N[C@@H](CC(C)C)C(=O)O)[C@@H](C)O)[C@@H](C)O)[C@@H](C)CC [APL10] (H-IWYITCFGCETHAML-OH; N-terminus and C-terminus assumed)
IL-6 levels in the supernatant (PBMC): 4.9 ng/mL

CC(C)C[C@H](NC(=O)[C@@H](NC(=O)[C@H](Cc1ccccc1)NC(=O)[C@H](CO)NC(=O)[C@@H](N)CCCNC(=N)N)[C@@H](C)O)C(=O)N[C@@H](CC(=O)O)C(=O)N[C@@H](CO)C(=O)N[C@@H](CO)C(=O)N[C@@H](CCC(=O)O)C(=O)N[C@H](C(=O)NCC(=O)N[C@H](C(=O)NCC(=O)O)C(C)C)[C@@H](C)O [APL15]
IL-6 levels in the supernatant (PBMC): 8.7 ng/mL

CC(C)C[C@H](NC(=O)[C@@H](NC(=O)[C@H](Cc1ccccc1)NC(=O)[C@H](CO)NC(=O)[C@@H](N)CCCNC(=N)N)[C@@H](C)O)C(=O)N[C@@H](CC(=O)O)C(=O)NCC(=O)N[C@@H](CO)C(=O)N[C@@H](CCC(=O)O)C(=O)N[C@H](C(=O)NCC(=O)N[C@H](C(=O)NCC(=O)O)C(C)C)[C@@H](C)O [APL19]
IL-6 levels in the supernatant (PBMC): 15.8 ng/mL

CC(C)C[C@H](NC(=O)[C@H](C)NC(=O)[C@@H](NC(=O)[C@H](C)NC(=O)[C@@H](N)CO)C(C)C)C(=O)N[C@@H](CCCNC(N)=O)C(=O)N[C@@H](CO)C(=O)N[C@@H](CO)C(=O)N[C@H](C(=O)N1CCC[C@H]1C(=O)NCC(=O)N[C@H](C(=O)N[C@@H](CCCNC(=N)N)C(=O)O)C(C)C)C(C)C [APL24, SAVALCitSSVPGVR]
IL-6 levels in the supernatant (PBMC): 6.6 ng/mL

CC(C)C[C@H](NC(=O)[C@H](CCCNC(=N)N)NC(=O)[C@@H](NC(=O)[C@H](C)NC(=O)[C@@H](N)CO)C(C)C)C(=O)N[C@@H](CCCNC(N)=O)C(=O)N[C@@H](CCCNC(=N)N)C(=O)N[C@@H](CO)C(=O)N[C@H](C(=O)N1CCC[C@H]1C(=O)NCC(=O)N[C@H](C(=O)N[C@@H](CCCNC(=N)N)C(=O)O)C(C)C)C(C)C [APL26, SAVRLCitRSVPGVR]
IL-6 levels in the supernatant (PBMC): 7 ng/mL

CC(C)C[C@H](NC(=O)[C@H](CCCNC(N)=O)NC(=O)[C@@H](NC(=O)[C@H](C)NC(=O)[C@H](CO)NC(=O)[C@H](CO)NC(=O)[C@H](CCCNC(N)=O)NC(=O)[C@@H](NC(=O)[C@H](C)NC(=O)[C@H](Cc1ccc(O)cc1)NC(=O)[C@@H](NC(=O)CN)C(C)C)[C@@H](C)O)C(C)C)C(=O)N[C@@H](CCCNC(N)=O)C(=O)O [APL34, GVYATCitSSAACitLCit]
IL-6 levels in the supernatant (PBMC): 5.2 ng/mL

CC(C)C[C@H](NC(=O)[C@H](CCCCN)NC(=O)[C@H](CC(N)=O)NC(=O)[C@H](C)NC(=O)[C@H](CCCNC(N)=O)NC(=O)[C@H](CC(N)=O)NC(=O)[C@@H](NC(=O)[C@H](Cc1ccccc1)NC(=O)[C@H](CC(=O)O)NC(=O)[C@@H](N)CCC(N)=O)[C@@H](C)O)C(=O)N[C@@H](CCCCN)C(=O)N[C@@H](CC(N)=O)C(=O)N[C@@H](CO)C(=O)O [APL35, QDFTNCitANKLKNS]
IL-6 levels in the supernatant (PBMC): 20.8 ng/mL

CC(C)C[C@H](NC(=O)[C@H](CC(C)C)NC(=O)[C@@H](NC(=O)[C@@H](N)C(C)C)C(C)C)C(=O)N[C@H](C(=O)N[C@@H](C)C(=O)N[C@H](C(=O)N[C@@H](CCC(=O)O)C(=O)NCC(=O)N[C@@H](CCCNC(N)=O)C(=O)N[C@H](C(=O)N[C@@H](CCCNC(=N)N)C(=O)N[C@H](C(=O)N[C@@H](C)C(=O)N[C@@H](CO)C(=O)N[C@@H](C)C(=O)N[C@@H](Cc1ccc(O)cc1)C(=O)N[C@@H](CCC(N)=O)C(=O)N[C@@H](CC(=O)O)C(=O)N[C@@H](CCCCN)C(=O)O)C(C)C)C(C)C)[C@@H](C)O)C(C)C [APL36]
IL-6 levels in the supernatant (PBMC): 6.8 ng/mL

CC(C)C[C@H](NC(=O)CNC(=O)[C@H](CCCNC(N)=O)NC(=O)[C@H](C)NC(=O)[C@@H]1CCCN1C(=O)[C@@H]1CCCN1C(=O)[C@@H]1CCCN1C(=O)[C@H](C)NC(=O)[C@@H]1CCCN1C(=O)[C@H](CCCNC(N)=O)NC(=O)[C@H](CO)NC(=O)[C@H](CCCNC(=N)N)NC(=O)CNC(=O)[C@H](CCCNC(N)=O)NC(=O)[C@@H](NC(=O)[C@H](CO)NC(=O)[C@H](CCC(=O)O)NC(=O)[C@@H](NC(=O)[C@H](CO)NC(=O)[C@H](CO)NC(=O)[C@H](CCCNC(N)=O)NC(=O)[C@H](CC(C)C)NC(=O)[C@H](CCCNC(N)=O)NC(=O)[C@@H](N)C(C)C)C(C)C)[C@@H](C)O)C(=O)N[C@H](C(=O)O)[C@@H](C)O [APL37, VCitLCitSSVESTCitGRSCitPAPPPACitGLT]
CD3% [1]: 64.55 ± 17.31%
CD4% [1]: 28.84 ± 9.35%
CD8% [1]: 27.61 ± 9.99%
IFN-γ [1]: 5.11 ± 0.54 pg/mL
IL-2 [1]: 4.46 ± 0.44 pg/mL
IL-4 [1]: 2.18 ± 0.29 pg/mL
TNF-α [1]: 2.51 ± 0.41 pg/mL
ALT level ([2]; at sacrifice, day 28): 47.37 ± 21.13 U/L
Observation on the daily condition of mice ([2]; during administration): No abnormality
Observation on the daily condition of rats ([3]; during administration): No abnormality
Tuberculosis recurrence rate ([3]; peptides 0.2 mmol, adalimumab 1 mg/kg, 21 days): 0%
Culture of MTB from lungs and spleens of rats at sacrifice ([3]; sacrifice on day 22, peptides 0.2 mmol, adalimumab 1 mg/kg): Negative
CD3% [4]: 38.29 ± 11.34%
CD4% [4]: 19.25 ± 7.84%
CD8% [4]: 18.33 ± 6.15%
IFN-γ [4]: 2.44 ± 0.31 pg/mL
IL-2 [4]: 3.28 ± 2.59 pg/mL
IL-4 [4]: 1.77 ± 0.85 pg/mL
TNF-α [4]: 4.96 ± 2.01 pg/mL

RSFTLAASETGVG [APL16]
IL-6 levels in the supernatant (PBMC): 6.8 ng/mL

RSFTLASSATGVG [APL17]
IL-6 levels in the supernatant (PBMC): 5.4 ng/mL

YAKQATLKLA [APL6]
IL-6 levels in the supernatant (PBMC): 6.5 ng/mL

YVAQNTLKLA [APL5]
IL-6 levels in the supernatant (PBMC): 8.7 ng/mL
